Drawing on US11352350B2, “IRAK degraders and uses thereof” (Kymera Therapeutics, Inc., priority 2018, dated 2022), this text covers DC50 and IC50 for 15 molecules.

Read-outs that look alike come from different tables or passages of the source. Bounds are passed on as bounds.

One assay deals with IRAK4 (Homo sapiens (Human), UniProt Q9NWZ3). Kind of assay: IRAK4 MSD degradation in OCI-LY10. The format is cell-based. The method in brief:
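OCI-LY10 cells treated with 8-point 1:3 dilutions (top 1 to 10 μM final) for 4 to 24 h at 37° C. Lysate IRAK4 measured by MSD sandwich immunoassay (2H9 capture, Y279 detection, SULFO-TAG anti-rabbit). DC50 from three-parameter logistic fit.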

The subject of the next assay is OCI-LY10. Nature of the assay: CTG Cell Viability Assay - OCI-LY10. The format is cell-based, human. The settings on record: OCI-LY10, 4 days, read-out: CTG Cell Viability Assay - OCI-LY10: Average external-IC50. The method in brief: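 OCI-LY10 cells exposed to 9-dose, 1:3 dilutions from 10 μM top (0.2% DMSO) for 4 days at 37° C, 5% CO2. Viability by CellTiter-Glo luminescence; IC50 from three-parameter logistic fit.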

The mark [1] stands for this setting: OCI-LY10, 4 hrs, MSD, read-out: IRAK4 MSD degradation in OCI-LY10 at 4 hrs: Average external-Abs DC50.
Where [2] appears, read: OCI-LY10, 24 hrs, MSD, read-out: IRAK4 MSD degradation in OCI-LY10 at 24 hrs: Average external-Abs DC50.
Setting [3] is: OCI-LY10, 4 hrs, read-out: IRAK4 MSD degradation in OCI-LY10 at 4 hrs: DC50.
The mark [4] stands for this setting: OCI-LY10, 24 hrs, read-out: IRAK4 MSD degradation in OCI-LY10 at 24 hrs: DC50.

Sequence of IRAK4 (Q9NWZ3 whole entry): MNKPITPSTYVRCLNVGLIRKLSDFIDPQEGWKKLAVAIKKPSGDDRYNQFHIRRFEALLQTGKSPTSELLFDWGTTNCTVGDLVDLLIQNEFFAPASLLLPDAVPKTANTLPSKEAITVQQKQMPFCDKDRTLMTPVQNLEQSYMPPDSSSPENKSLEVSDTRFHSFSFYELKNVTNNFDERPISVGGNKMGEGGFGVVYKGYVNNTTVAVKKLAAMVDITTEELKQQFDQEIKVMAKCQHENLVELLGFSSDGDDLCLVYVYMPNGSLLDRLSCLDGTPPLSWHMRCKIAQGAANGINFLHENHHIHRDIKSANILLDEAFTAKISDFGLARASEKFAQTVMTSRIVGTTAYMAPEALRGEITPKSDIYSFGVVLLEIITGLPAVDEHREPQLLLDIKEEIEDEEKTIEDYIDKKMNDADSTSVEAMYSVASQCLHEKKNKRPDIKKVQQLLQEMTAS

As to `C[C@@H]1CN(c2ccn3ncc(C(=O)Nc4cn([C@H]5CC[C@H](CN6CCC(OCCCc7cccc8c7n(C)c(=O)n8C7CCC(=O)NC7=O)CC6)CC5)nc4C(F)F)c3n2)C[C@@H](C)O1` (stereo partly shown) [I-276], the half-maximal degradation concentration (DC50) on IRAK4 (setting [1]) was under 10 nM. In addition, the IC50 in the assay with OCI-LY10 (Homo sapiens, OCI-Ly10, 96 h) is over 1000 nM.
`Cn1c(=O)n(C2CCC(=O)NC2=O)c2cccc(CCCOCCCN3CCN([C@H]4CC[C@H](Nc5ncnc6ccc(CC#N)cc56)CC4)CC3)c21` (stereo partly shown) [I-269]: the DC50 on IRAK4 (setting [1]) and on IRAK4 (setting [2]) was over 1000 nM each time. The IC50 in the assay on OCI-LY10 (Homo sapiens, OCI-Ly10, 96 h) is over 1000 nM.
Take `CN(Cc1ccc(-n2cc(NC(=O)c3cnn4ccc(N5CCOCC5)nc34)c(C(F)F)n2)cc1)[C@H]1CC[C@H](Nc2cccc3c2C(=O)N(C2CCC(=O)NC2=O)C3=O)CC1` (stereo partly shown) [I-476]: the DC50 on IRAK4 (setting [3]) and on IRAK4 (setting [4]) was 10 to 100 nM in each case. In the assay with OCI-LY10 (Homo sapiens, OCI-Ly10, 96 h), the IC50 was over 1000 nM.
Take `CN(C[C@H]1CC[C@H](n2cc(NC(=O)c3cnn4ccc(N5CCOCC5)nc34)c(C(F)F)n2)CC1)C1CCN(CCc2cccc3c2n(C)c(=O)n3C2CCC(=O)NC2=O)CC1` (stereo partly shown) [I-404]: the 50% degradation concentration (DC50) on IRAK4 (setting [1]) was under 10 nM. For the same molecule, the IC50 with OCI-LY10 (Homo sapiens, OCI-Ly10, 96 h) was under 50 nM.
For `Cn1c(=O)n(C2CCC(=O)NC2=O)c2cccc(CCCOC3CCN(C[C@H]4CC[C@H](n5cc(NC(=O)c6cnn7ccc(NCC8CC8)nc67)c(C(F)F)n5)CC4)CC3)c21` (stereo partly shown) [I-156], the DC50 on IRAK4 (setting [1]) fell in the range of 10 to 100 nM. The 50% inhibitory concentration (IC50) in the assay on OCI-LY10 (Homo sapiens, OCI-Ly10, 96 h) is over 1000 nM.
As for `CN(CCN(C)CC1CCC(n2cc(NC(=O)c3cnn4ccc(N5C[C@H]6C[C@@H]5CO6)nc34)c(C(F)F)n2)CC1)Cc1ccc(COc2cccc3c2C(=O)N(C2CCC(=O)NC2=O)C3=O)cc1` (stereo partly shown) [I-335], the DC50 at IRAK4 (setting [1]) was 100 to 1000 nM. The IC50 in the assay with OCI-LY10 (Homo sapiens, OCI-Ly10, 96 h) lay within 500 to 1000 nM.
As to `CC[C@@H]1[C@H](F)C(=O)N[C@@H]1COc1ncc(C#C[C@H]2CC[C@H](CN(C)CCCOCCCN)CC2)c2cc(C(N)=O)c(OC)cc12` [I-316, 4-[2-[4-[[3-(3-Aminopropoxy)propyl-methyl-amino]methyl]cyclohexyl]ethynyl]-1-[[(2S, 3S, 4S)-3-ethyl-4-fluoro-5-oxo-pyrrolidin-2-yl]methoxy]-7-methoxy-isoquinoline-6-carboxamide], the DC50 on IRAK4 (setting [1]) and at IRAK4 (setting [2]) was over 1000 nM in each case. Further, the IC50 in the assay with OCI-LY10 (Homo sapiens, 96 h) is over 1000 nM.
As for `Cn1c(=O)n(C2CCC(=O)NC2=O)c2cccc(CN3CCC4(CC3)CN(C[C@H]3CC[C@H](n5cc(NC(=O)c6coc(-c7ccnc(NCC8CC8)c7)n6)c(C(F)F)n5)CC3)C4)c21` (stereo partly shown) [I-244], at IRAK4 (setting [1]), the DC50 was under 10 nM. For the same molecule, the half-maximal inhibitory concentration (IC50) with OCI-LY10 (Homo sapiens, OCI-Ly10, 96 h) lay within 100 to 500 nM.
On to `O=C1CCC(N2C(=O)c3cccc(NCCCOC[C@H]4CN(C[C@H]5CC[C@H](n6cc(NC(=O)c7cnn8ccc(N9CCOCC9)nc78)c(C(F)F)n6)CC5)CCO4)c3C2=O)C(=O)N1` (stereo partly shown) [I-332], for which the half-maximal degradation concentration (DC50) at IRAK4 (setting [1]) lay within 100 to 1000 nM; on IRAK4 (setting [2]) it was 10 to 100 nM. In the assay with OCI-LY10 (Homo sapiens, OCI-Ly10, 96 h), the concentration for half-maximal inhibition (IC50) lay within 100 to 500 nM.
Turning to `O=C1CCC(N2C(=O)c3cccc(NCCOC4CCN(C[C@H]5CC[C@H](n6cc(NC(=O)c7cnn8ccc(N9CCOCC9)nc78)c(C(F)F)n6)CC5)CC4)c3C2=O)C(=O)N1` (stereo partly shown) [I-210], the DC50 on IRAK4 (setting [1]) and at IRAK4 (setting [2]) was 10 to 100 nM each time. Besides, the half-maximal inhibitory concentration (IC50) in the assay on OCI-LY10 (Homo sapiens, OCI-Ly10, 96 h) is over 1000 nM.
In the case of `O=C1CCC(N2C(=O)c3cccc(NCC4CCN(Cc5ccc(-n6cc(NC(=O)c7cnn8ccc(N9C[C@H]%10C[C@@H]9CO%10)nc78)c(C(F)F)n6)cc5)CC4)c3C2=O)C(=O)N1` (stereo partly shown) [I-489], the 50% degradation concentration (DC50) at IRAK4 (setting [3]) was 100 to 1000 nM; at IRAK4 (setting [4]), over 1000 nM. Further, in the assay on OCI-LY10 (Homo sapiens, OCI-Ly10, 96 h), the IC50 was under 50 nM.
On to `Cc1ccc(-n2nc(C3CCN(C(=O)CCCCOCCCc4cccc5c4n(C)c(=O)n5C4CCC(=O)NC4=O)CC3)cc2NC(=O)c2cnn3cccnc23)nc1` (stereo not shown) [I-160], for which the half-maximal degradation concentration (DC50) on IRAK4 (setting [1]) and on IRAK4 (setting [2]) was over 1000 nM in each case. Also, the 50% inhibitory concentration (IC50) with OCI-LY10 (Homo sapiens, OCI-Ly10, 96 h) is over 1000 nM.
As to `Cn1c(=O)n(C2CCC(=O)NC2=O)c2cccc(CCCO[C@H]3CC[C@H](CN4CCC(n5cc(NC(=O)c6cnn7ccc(N8CCOCC8)nc67)c(C(F)F)n5)CC4)CC3)c21` (stereo partly shown) [I-200], the 50% degradation concentration (DC50) on IRAK4 (setting [1]) was under 10 nM. For the same molecule, the IC50 in the assay with OCI-LY10 (Homo sapiens, OCI-Ly10, 96 h) lay within 50 to 100 nM.
With `CC[C@H]1C(COc2ncc(C#C[C@H]3CC[C@H](CN(C)Cc4ccc(CCNc5cccc6c5C(=O)N(C5CCC(=O)NC5=O)C6=O)cc4)CC3)c3cc(C(N)=O)c(OC)cc23)NC(=O)[C@H]1F` (stereo partly shown) [I-329], on IRAK4 (setting [1]), the DC50 is 100 to 1000 nM. Further, the concentration for half-maximal inhibition (IC50) in the assay on OCI-LY10 (Homo sapiens, OCI-Ly10, 96 h) was over 1000 nM.
Take `Cn1c(=O)n(C2CCC(=O)NC2=O)c2cccc(CCCOC3CCN(C[C@H]4CC[C@H](n5cc(NC(=O)c6cnn7ccc(NCC8CC8)nc67)c(C(C)(C)O)n5)CC4)CC3)c21` (stereo partly shown) [I-267]: at IRAK4 (setting [1]), the DC50 was 100 to 1000 nM. Further, the IC50 with OCI-LY10 was over 1000 nM.

A word on the DC50: it is the concentration giving 50% degradation. A word on the IC50: it is the concentration that gives 50% inhibition.
